These results are taken from the METLIN SMRT retention time set (Domingo-Almenara et al. 2019).

The series is described as follows: gradient 5% acetonitrile 3 min, to 50% in 2 min, to 85% in 15 min, held 3 min, 100 µL/min. Conditions: column: Zorbax Extend-C18 2.1 x 50 mm; eluents: water / acetonitrile, 0.1% formic acid. The gist of the method: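 A Zorbax Extend-C18 column (2.1 × 50 mm, 1.8 μm) run at 100 μL/min with water and acetonitrile, both containing 0.1% formic acid, separated mixtures of ~100 pure standards. The HPLC was coupled to a quadrupole time-of-flight mass spectrometer operated in positive and negative ionization mode, with dead and dwell volumes of 40 μL and 900 μL. Each retention time was taken from a computationally picked adduct peak that was then manually inspected.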
Molecule `Clc1ccc(OCc2nnc3sc(-c4ccc5ccccc5n4)nn23)cc1` returned an RP-LC retention time of 1210 s.
To `O=C(C1=C(O)C(=O)N(CCCn2ccnc2)C1c1cccc([N+](=O)[O-])c1)c1cccs1` (configuration not stated) belongs 565 s.
As to `Cc1ccc(N2C(=O)C3N=NN(Cc4nc(-c5cccc(Br)c5)no4)C3C2=O)cc1C` (configuration not stated), the RP-LC retention time amounted to 1120 s.
Then `CCOC(=O)c1nc(NCc2ccccc2OC)c2c(CC)noc2n1`, with 943 s.
For `COc1cc(C2C(C(=O)N3CCCCC3)=C(C)NC3=C2C(=O)CCC3)ccc1OC(C)=O` (configuration not stated), the RP-LC retention time was 647 s.
Then `O=C(O)c1cnn2c(C(F)(F)F)cc(-c3ccc(F)cc3)nc12`, with 823 s; and `O=C(Nc1nc(C(=O)N2CCN(C(=O)c3ccco3)CC2)co1)c1ccsc1`, with 656 s.
`CCc1nc2c(=O)n(CC(=O)N(CC)Cc3ccccc3)nc(C)c2s1` gave an RP-LC retention time of 740 s.
Molecule `Cc1ccn2cc(C(=O)NCc3ccccc3C)nc2c1` returned an RP-LC retention time of 708 s.
Regarding `Cc1cccc(Cn2nc3ccc(S(=O)(=O)N4CCCCC4)cn3c2=O)c1`, the RP-LC retention time came to 915 s.
Regarding `Cc1noc(-c2cccc(OC3CN(C(=O)c4ccco4)C3)c2)n1`, the RP-LC retention time was 789 s.
`Cn1c(=O)n(CC(=O)O)c(=O)c2c1nc1n2CCCN1c1ccc(F)cc1` registered an RP-LC retention time of 632 s.
Then `CN1C(=O)C2CCCCN2c2ccc(C(=O)N3CCN(c4cccc(Cl)c4)CC3)cc21` (configuration not stated), with 1060 s.
Then `Cc1ccc(Sc2nccnc2N2CCCC(C(=O)NCc3ccc(C)o3)C2)cc1` (configuration not stated), with 1080 s; and `CN1CCCN(C(=O)CCc2ccc3c(ccn3C)c2)CC1`, with 605 s.
`CCc1ccc(S(=O)(=O)N2CC(F)(F)C[C@H]2CN2CCc3ccccc3C2)cc1`: the RP-LC retention time turned out to be 808 s.
The molecule `Cc1cccc(NC(=O)Cn2cnc3nc(N4CCC(C(=O)NC5CC5)CC4)sc3c2=O)c1C` had an RP-LC retention time of 693 s.
To `Cn1cnc2ccc(-c3noc(Cc4ccccc4Cl)n3)cc21` belongs 738 s.
To `COc1cccc(N2CCN(CC(O)c3ccc4c(c3)OCO4)CC2)c1` (configuration not stated) belongs 640 s; to `CC(C(=O)NCCCN1CCN(C2CCCCC2)CC1)n1c(=O)c(C(F)(F)F)nc2ccccc21` (configuration not stated), 639 s; to `CCSc1nnc(-c2nn(C)c3c2CN(S(=O)(=O)c2ccc(C)c(F)c2)CC3)n1CC`, 1000 s.
Then `COC(=O)c1ccccc1NC(=O)CCc1c(-c2ccc(F)cc2)nc2ccccn12`, with 724 s; and `Cc1noc([C@]23CN(CCc4ccccc4)CC[C@H]2CN(CCc2ccccc2)C3)n1`, with 573 s.
For `Cc1ccc(C)c(CNC(=O)c2nnc(-c3ccc(S(=O)(=O)N4CCC(C)CC4)cc3)o2)c1`, the RP-LC retention time stood at 1160 s.
`CCc1nc2cc(N3CCCC(C(=O)NCCOC)C3)cnc2nc1CC` (configuration not stated) displayed an RP-LC retention time of 662 s.
Regarding `CCNc1cc(N2CCC(CCC(=O)Nc3ccc(OC)cc3OC)CC2)ncn1`, the RP-LC retention time came out at 665 s.
For the molecule `CCc1nc(-c2csc(S(=O)(=O)N3CCC(C(=O)NCc4ccccc4Cl)CC3)c2)no1`, the RP-LC retention time worked out at 984 s.
For `COc1cc(OC)cc(C(=O)N2CCC3(CC2)NC(=O)c2ccc(F)cc2N3C)c1`, the RP-LC retention time is 734 s.
The molecule `O=C(c1ccccc1)C(c1ccccc1)C1(O)C(=O)Nc2c(Cl)cc(Cl)cc21` (configuration not stated) returned an RP-LC retention time of 949 s.
`CCn1c(C(=O)NCc2ccc(F)cc2)cc2sccc21` yielded an RP-LC retention time of 1010 s.
The molecule `Cc1cccc(-n2ccc(=O)c(-c3nc(-c4ccc5c(c4)OCO5)no3)n2)c1` yielded an RP-LC retention time of 894 s.
Then `Cc1ccc(NC(=O)N(C)CC2CCOC2)c(Cl)c1` (configuration not stated), with 766 s.
